Laboratory results from PMC9653804, “Multifunctional Derivatives of Spiropyrrolidine Tethered Indeno-Quinoxaline Heterocyclic Hybrids as Potent Antimicrobial, Antioxidant and Antidiabetic Agents: Design, Synthesis, In Vitro and In Silico Approaches” (Molecules, 2022).
≈ marks a conversion by molar mass, not a printed value.

Tests used:
[1] = tested on: Staphylococcus aureus ATCC 25923; test: Antimicrobial activity (MIC, MBC) against S. aureus; format: cell-based; conditions: S. aureus ATCC 25923; for MBC/MIC: bactericidal ≤ 4, bacteriostatic > 4; for MIC: Staphylococcus aureus, ATCC25923, '-' = No activity
[2] = tested on: Escherichia coli ATCC 25922; test: Antimicrobial activity (MIC, MBC) against E. coli; format: cell-based; conditions: E. coli ATCC 25922; '-' = No activity
[3] = tested on: Pseudomonas aeruginosa ATCC 27853; test: Antimicrobial activity (MIC, MBC) against P. aeruginosa; format: cell-based; conditions: P. aeruginosa ATCC 27853, '-' = No activity
[4] = tested on: Candida albicans ATCC 90028; test: Antifungal activity (MIC, MFC) against C. albicans; format: cell-based; conditions: C. albicans ATCC 90028, '-' = No activity; for MFC/MIC: fungicidal ≤ 4, fungistatic > 4; for MFC / MIC: Candida albicans, ATCC90028
[5] = tested on: Candida krusei ATCC 6258; test: Antifungal activity (MIC, MFC) against C. krusei; format: cell-based; conditions: C. krusei ATCC 6258, '-' = No activity; for MFC / MIC: Pichia kudriavzevii, ATCC6258
[6] = DPPH free radical scavenging activity; conditions: DPPH radical scavenging
Description: DPPH, the stable artificial free radicals, has been widely used for the measurement of free radical scavenging capacity of the compounds in ethanol and aqueous systems. Briefly, 2 mL DPPH solution (0.2 mM, in 95% ethanol) was incubated with 2 mL different concentrations of compounds solution. Then, the reaction mixture was shaken and incubated in the dark for 40 min at room temperature. The absorbance was immediately recorded at 517 nm against ethanol with a spectrophotometer (Metash, model UV-5200, Shanghai Xiwen Biotech. Co., Ltd, Shanghai, China). The DPPH free radical scavenging rate was calculated using the equation:DPPH scavenging activity (%) = A0 − A1/A0 × 100 where A0 was the absorbance of the control reaction (containing all reagents except the tested compound), and A1 was the absorbance of the test reaction (containing all reagents with the tested compound). The percentage of DPPH radical scavenging activity was plotted against the sample concentration to acquire the IC50 value, defined as the concentration of sample necessary to cause 50% inhibition. Radical scavenging activity (RSA) was calculated from the IC50 value as the equation: RSA = pIC50 = −lg[IC50]. The smaller the IC50 value, the larger is the RSA value and the higher is the antioxidant activity.

[7] = Radical scavenging activity ABTS; conditions: for IC50: ABTS radical scavenging; for ABTS scavenging activity, fold higher than Trolox: relative to standard Trolox
Description: The ABTS assay was performed as previously described by Tuberoso et al.. ABTS^+ radical was generated by oxidation of ABTS with potassium persulfate. The blue–green ABTS was produced through the reaction between 2 mM ABTS and […] potassium persulfate in water. The mixture was left to stand in the dark for 12 to 16 h before use. The ABTS solution was diluted with methanol to an absorbance of 0.700 ± 0.005 at 734 nm. Then 2 mL of diluted ABTS solution was mixed with 100 μL of samples and absorbance was measured after 1 min incubation at room temperature. A standard curve was obtained by using Trolox as standard solution. The results were expressed as μM Trolox equivalent.
The mixture of 7 mmol/L aqueous ABTS solution with 2.45 mmol/L potassium persulfate solution constitutes a stable ABTS^+ stock solution that was allowed to stand in the dark and at room temperature for 12 to 16 h before use. A 1 mL sample of the diluted ABTS solution (adjusted to 0.7 ± 0.02 at […]) was added to 10 μL of each product. The absorbance was determined after 6 min. The percentage inhibition of the ABTS˙ radical was calculated from the following equation:% inhibition = (Abscontrol − Abstest)/Abscontrol × 100
Abs control: the control absorbance.
Abs test: the absorbance of the test sample after 6 min.

[8] = Ferric reducing power assay (FRAP)
[9] = tested on: Micrococccus luteus NCIMB 8166; test: Antimicrobial activity (MIC, MBC) against M. luteus; format: cell-based; conditions: M. luteus NCIMB 8166, '-' = No activity; for MIC: Micrococcus luteus, NCIMB8166

| Structure (SMILES) | MBC/MIC [1] | MBC/MIC [2] | MBC/MIC [3] | MFC/MIC [4] | MFC/MIC [5] | MFC [5] | MIC [5] | IC50 [6] | IC50 [7] | melting point | IC50 [8] | MIC [1] | MFC [4] | MIC [4] | MBC/MIC [9] | MIC [9] | ABTS scavenging activity, fold higher than Trolox [7] | MIC ([3]; Pseudomonas aeruginosa, ATCC27853) |
| --- | --- | --- | --- | --- | --- | --- | --- | --- | --- | --- | --- | --- | --- | --- | --- | --- | --- | --- |
| CN1C(=O)CC2(C1=O)C(c1ccccc1)CN(C)C21c2ccccc2-c2nc3ccccc3nc21 (stereo not shown) [5a, Spiro [2,11″]indeno-[1,2b]-quinoxaline-spiro-[3,3′]-N-methylsuccinimide-4-(phenyl)hexahydro-1H-pyrrolidines] | 2 | 2 | 4 | 1 | 1 | 67.6 mM (≈ 31.1 mg/mL) | 67.6 mM (≈ 31.1 mg/mL) | 15.4 ± 0.65 µM | 49.19 ± 0.46 µM | 173 to 175 °C | 17 ± 0.52 µM |  |  |  |  |  |  |  |
| Cc1ccc(C2CN(C)C3(c4ccccc4-c4nc5ccccc5nc43)C23CC(=O)N(C)C3=O)cc1 (stereo not shown) [5b, Spiro [2,11″]indeno-[1,2b]-quinoxaline-spiro-[3,3′]-N-methylsuccinimide-4-(4-methylphenyl)hexahydro-1H-pyrrolidines] | 8 | 2 | 4 | 2 | 1 | 65.6 mM (≈ 31.1 mg/mL) | 65.6 mM (≈ 31.1 mg/mL) | 33.74 ± 0.004 µM | 57.51 ± 0.55 µM | 183 to 185 °C | 63.26 ± 0.21 µM | 65.6 mM (≈ 31.1 mg/mL) |  |  |  |  |  |  |
| COc1ccccc1C1CN(C)C2(c3ccccc3-c3nc4ccccc4nc32)C12CC(=O)N(C)C2=O (stereo not shown) [5c, Spiro [2,11″]indeno-[1,2b]-quinoxaline-spiro-[3,3′]-N-methylsuccinimide-4-(2 methoxyphenyl)hexahydro-1H-pyrrolidines] | 16 |  | 2 | 1 | 1 | 63.4 mM (≈ 31.1 mg/mL) | 63.4 mM (≈ 31.1 mg/mL) | 3.26 ± 0.32 µM | 7.03 ± 0.07 µM | 196 to 198 °C | 3.69 ± 0.72 µM | 31.7 mM (≈ 15.6 mg/mL) | 63.4 mM (≈ 31.1 mg/mL) | 63.4 mM (≈ 31.1 mg/mL) |  |  |  |  |
| COc1ccc(C2CN(C)C3(c4ccccc4-c4nc5ccccc5nc43)C23CC(=O)N(C)C3=O)cc1 (stereo not shown) [5d, Spiro [2,11″]indeno-[1,2b]-quinoxaline-spiro-[3,3′]-N-methylsuccinimide-4-(4-methoxyphenyl)hexahydro-1H-pyrrolidines] | 32 | 4 | 4 | 4 | 1 | 15.8 mM (≈ 7.78 mg/mL) | 15.8 mM (≈ 7.78 mg/mL) | 7.44 ± 0.15 µM | 9.78 ± 0.3 µM | 179 to 181 °C | 8.09 ± 0.82 µM | 3.95 mM (≈ 1.94 mg/mL) |  | 31.7 mM (≈ 15.6 mg/mL) | 4 | 63.4 mM (≈ 31.1 mg/mL) |  |  |
| CN1C(=O)CC2(C1=O)C(c1ccc(Br)cc1)CN(C)C21c2ccccc2-c2nc3ccccc3nc21 (stereo not shown) [5f, Spiro [2,11″]indeno-[1,2b]-quinoxaline-spiro-[3,3′]-N-methylsuccinimide-4-(4-bromophenyl)hexahydro-1H-pyrrolidines] | 2 | 2 | 2 | 1 | 1 | 57.7 mM (≈ 31.1 mg/mL) | 57.7 mM (≈ 31.1 mg/mL) | 16.1 ± 0.39 µM | 18.1 ± 0.53 µM | 200 to 202 °C | 7.93 ± 0.44 µM |  | 57.7 mM (≈ 31.1 mg/mL) | 57.7 mM (≈ 31.1 mg/mL) |  |  | ~6 fold |  |
| CN1C(=O)CC2(C1=O)C(c1ccc(F)cc1)CN(C)C21c2ccccc2-c2nc3ccccc3nc21 (stereo not shown) [5g, Spiro [2,11″]indeno-[1,2b]-quinoxaline-spiro-[3,3′]-N-methylsuccinimide-4-(4-fluorophenyl)hexahydro-1H-pyrrolidines] | 16 | 2 | 2 | 1 | 1 | 32.5 mM (≈ 15.6 mg/mL) | 32.5 mM (≈ 15.6 mg/mL) | 26 ± 0.5 µM | 7.19 ± 0.11 µM | 205 to 207 °C | 20.5 ± 0.6 µM | 16.2 mM (≈ 7.78 mg/mL) | 65 mM (≈ 31.1 mg/mL) | 65 mM (≈ 31.1 mg/mL) |  |  | about 14 fold |  |
| COc1ccc(C2CN(C)C3(c4ccccc4-c4nc5ccccc5nc43)C23CC(=O)N(C)C3=O)cc1OC (stereo not shown) [5j, Spiro [2,11″]indeno-[1,2b]-quinoxaline-spiro-[3,3′]-N-methylsuccinimide-4-(3,4-dimethoxyphenyl)hexahydro-1H-pyrrolidines] | 32 | 2 | 2 | 2 | 1 | 59.8 mM (≈ 31.1 mg/mL) | 59.8 mM (≈ 31.1 mg/mL) | 19.2 ± 0.19 µM | 11.56 ± 0.05 µM | 211 to 213 °C | 5.98 ± 0.17 µM | 14.9 mM (≈ 7.78 mg/mL) |  |  | 2 |  |  |  |
| COc1ccc(C2CN(C)C3(c4ccccc4-c4nc5ccccc5nc43)C23CC(=O)N(C)C3=O)cc1Br (stereo not shown) [5k, Spiro [2,11″]indeno-[1,2b]-quinoxaline-spiro-[3,3′]-N-methylsuccinimide-4-(3-bromo-4-methoxyphenyl)hexahydro-1H-pyrrolidines] | 8 | 2 | 2 | 1 | 1 | 54.7 mM (≈ 31.1 mg/mL) | 54.7 mM (≈ 31.1 mg/mL) | 123.4 ± 0.45 µM | 7.69 ± 0.36 µM | 209 to 211 °C | 6.03 ± 0.12 µM | 54.7 mM (≈ 31.1 mg/mL) |  |  |  |  |  |  |
| CN1C(=O)CC2(C1=O)C(c1ccc(O)c(Br)c1)CN(C)C21c2ccccc2-c2nc3ccccc3nc21 (stereo not shown) [5l, Spiro [2,11″]indeno-[1,2b]-quinoxaline-spiro-[3,3′]-N-methylsuccinimide-4-(3-bromo-4-hydroxy-phenyl)hexahydro-1H-pyrrolidines] | 16 | 2 | 4 | 8 | 1 | 28 mM (≈ 15.6 mg/mL) | 28 mM (≈ 15.6 mg/mL) | 15.3 ± 0.37 µM | 15.2 ± 0.31 µM | 189 to 191 °C | 3.26 ± 0.45 µM | 28 mM (≈ 15.6 mg/mL) |  | 56.1 mM (≈ 31.1 mg/mL) | 2 |  |  |  |
| CN1C(=O)CC2(C1=O)C(c1cc(Br)c(O)c(Br)c1)CN(C)C21c2ccccc2-c2nc3ccccc3nc21 (stereo not shown) [5m, Spiro [2,11″]indeno-[1,2b]-quinoxaline-spiro-[3,3′]-N-methylsuccinimide-4-(3,5-dibromo-4-hydroxyphenyl)hexahydro-1H-pyrrolidines] | 8 | 1 | 4 | 1 | 1 | 49.1 mM (≈ 31.1 mg/mL) | 49.1 mM (≈ 31.1 mg/mL) | 47.29 ± 0.06 µM | 14.6 ± 0.26 µM | 214 to 216 °C | 7.38 ± 0.14 µM | 24.5 mM (≈ 15.6 mg/mL) | 98.2 mM (≈ 62.3 mg/mL) | 98.2 mM (≈ 62.3 mg/mL) |  | 98.2 mM (≈ 62.3 mg/mL) |  | 98.2 mM (≈ 62.3 mg/mL) |
| C[C@@H]1[C@H](O)[C@@H](C)/C=C/C=C/C=C/C=C/C=C/C=C/C=C/[C@H](O[C@@H]2O[C@H](C)[C@@H](O)[C@H](N)[C@@H]2O)C[C@@H]2O[C@](O)(C[C@@H](O)C[C@@H](O)[C@H](O)CC[C@@H](O)C[C@@H](O)CC(=O)O[C@H]1C)C[C@H](O)[C@H]2C(=O)O [Amphotericin B, reference compound] |  |  |  | 1 | 1 | 5.41 mM (≈ 5 mg/mL) | 5.41 mM (≈ 5 mg/mL) |  |  |  |  |  | 5.41 mM (≈ 5 mg/mL) | 5.41 mM (≈ 5 mg/mL) |  |  |  |  |
| CN(C)[C@@H]1C(O)=C(C(N)=O)C(=O)[C@@]2(O)C(O)=C3C(=O)c4c(O)cccc4[C@@](C)(O)[C@H]3C[C@@H]12 [Tetracycline, reference compound] | 2 | 1 | 2 |  |  |  |  |  |  |  |  |  |  |  | 2 |  |  |  |
| Cc1c(C)c2c(c(C)c1O)CCC(C)(C(=O)O)O2 (stereo not shown) [Trolox, reference compound] |  |  |  |  |  |  |  | 31.2 ± 3.67 µM | 99.88 ± 0.31 µM |  | 41.9 ± 2.07 µM |  |  |  |  |  |  |  |
